The text below walks through data of patent US8461209B2, “Malonic acid sulfonamide derivative and pharmaceutical use thereof” (Mitsubishi Tanabe Pharma Corporation, priority 2007, dated 2013).

This assay deals with T1, human recombinant AT2 receptor (Homo sapiens, UniProt P50052).
T1 construct: purchased PerkinElmer 6110538; host or cells: HeLa cells
T1 sequence (P50052 1-363): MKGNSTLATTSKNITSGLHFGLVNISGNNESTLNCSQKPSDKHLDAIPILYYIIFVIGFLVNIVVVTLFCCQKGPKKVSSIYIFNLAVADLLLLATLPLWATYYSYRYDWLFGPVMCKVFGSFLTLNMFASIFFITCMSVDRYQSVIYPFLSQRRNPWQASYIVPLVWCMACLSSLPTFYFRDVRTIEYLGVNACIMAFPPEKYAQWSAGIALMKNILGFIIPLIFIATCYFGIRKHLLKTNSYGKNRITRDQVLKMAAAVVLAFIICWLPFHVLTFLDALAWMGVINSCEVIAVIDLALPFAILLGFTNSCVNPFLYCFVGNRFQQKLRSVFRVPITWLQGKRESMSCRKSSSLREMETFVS
As to the kind of experiment: Affinity for AT2 receptor (receptor binding assay). To be noted: membrane fraction from HeLa cells expressing human recombinant AT2 receptor; 125I-[Sar1, Ile8]-Ang II 0.1 nmol/L. As for the experimental part: Using a commercially available receptor membrane fraction (PerkinElmer, Cat No. 6110538) obtained from HeLa cells expressing human recombinant AT2 receptor, a receptor binding assay was performed. ^125I-[Sar^1, Ile^8]-Ang II (0.8 kBq, final concentration 0.1 nmol/L) and various concentrations of the compound of the present invention were added to a solution of 50 mmol/L Tris-HCl (pH 7.4), 125 mmol/L NaCl, 6.5 mmol/L MgCl2 and 1 mmol/L EDTA containing the receptor membrane fraction, and the mixture was incubated at room temperature for 90 min. Bound or free ^125I-[Sar^1, Ile^8]-Ang II was separated with a glass fiber filter (Millipore, MultiScreen FB Plate), and the radioactivity of ^125I-[Sar^1, Ile^8]-Ang II bound to the receptor was determined. […] On the other hand, Kd value of ^125I-[Sar^i, Ile^8]-Ang II for AT2 receptor in the absence of the compound of the present invention was determined by Scatchard analysis. Using the IC50 value obtained from the concentration-response curve and the Kd value of ^125I-[Sar^1, Ile^8]-Ang II, the Ki value of the compound of the present invention was calculated and used as an index of the affinity for AT2 receptor.

As to `CC(C)N(C(=O)C(CC1CC1)C(=O)NS(=O)(=O)/C=C/c1ccccc1)c1ccc(F)cc1` (single isomer, unassigned) [Example 516, (2S or 2R)-2-cyclopropylmethyl-N-(4-fluorophenyl)-N-isopropyl-N′-((E)-2-styrylsulfonyl)malonamide], the Ki was 6.1 nM.
For `CCN(CC)C(=O)C(Cc1ccc(NC(=O)c2c(F)cccc2F)cc1)C(=O)NS(=O)(=O)c1ccc2ccccc2c1` (stereo not shown) [Example 22, N,N-diethyl-2-{4-[(2,6-difluorobenzoyl)amino]benzyl}-N′-(2-naphthylsulfonyl)malonamide] the value was 8 nM.
For `CCN(CC)C(=O)C(Cc1ccc(NC(=O)Oc2ccccc2)cc1)C(=O)NS(=O)(=O)c1ccc2ccccc2c1` (stereo not shown) [Example 87, N,N-diethyl-N′-(2-naphthylsulfonyl)-2-[4-(phenoxycarbonylamino)benzyl]malonamide] the value was 23 nM; for `CCN(CC)C(=O)[C@H](Cc1ccc(NC(=O)c2ccccc2)cc1)C(=O)NS(=O)(=O)c1ccc2ccccc2c1` [Example 92, (2S)-2-[4-(benzoylamino)benzyl]-N,N-diethyl-N′-(2-naphthylsulfonyl)malonamide], 2.3 nM; for `CCN(CC)C(=O)[C@H](Cc1ccc(NC(=O)c2cc(F)ccc2N)cc1)C(=O)NS(=O)(=O)c1ccc2ccccc2c1` [Example 99, (2S)-2-{4-[(2-amino-5-fluorobenzoyl)amino]benzyl}-N,N-diethyl-N′-(2-naphthylsulfonyl)malonamide], 0.9 nM.
To `CCN(CC)C(=O)[C@H](Cc1ccc(NC(=O)c2c(N)cccc2F)cc1)C(=O)NS(=O)(=O)c1ccc2ccccc2c1` [Example 100, (2S)-2-{4-[(2-amino-6-fluorobenzoyl)amino]benzyl}-N,N-diethyl-N′-(2-naphthylsulfonyl)malonamide] belongs 1.8 nM.
Regarding `CCN(CC)C(=O)[C@H](Cc1ccc(NC(=O)c2ccccn2)cc1)C(=O)NS(=O)(=O)c1ccc2ccccc2c1` [Example 101, (2S)—N,N-diethyl-N′-(2-naphthylsulfonyl)-2-{4-[(2-pyridylcarbonyl)amino]benzyl}malonamide], the Ki came to 16 nM.
For `CCN(CC)C(=O)[C@H](Cc1ccc(NC(=O)c2ccc(Cl)cc2N)cc1)C(=O)NS(=O)(=O)c1ccc2ccccc2c1` [Example 103, (2S)-2-{4-[(2-amino-4-chlorobenzoyl)amino]benzyl}-N,N-diethyl-N′-(2-naphthylsulfonyl)malonamide] the value was 3.2 nM; for `CCN(CC)C(=O)[C@H](Cc1ccc(NC(=O)c2ccccc2N)cc1)C(=O)NS(=O)(=O)c1ccc2ccccc2c1` [Example 104, (2S)-2-{4-[(2-aminobenzoyl)amino]benzyl}-N,N-diethyl-N′-(2-naphthylsulfonyl)malonamide], 3.3 nM.
To `CCN(CC)C(=O)[C@H](Cc1ccc(NC(=O)c2cc(Cl)ccc2N)cc1)C(=O)NS(=O)(=O)c1ccc2ccccc2c1` [Example 105, (2S)-2-{4-[(2-amino-5-chlorobenzoyl)amino]benzyl}-N,N-diethyl-N′-(2-naphthylsulfonyl)malonamide] belongs 5.4 nM; to `CCN(CC)C(=O)[C@H](Cc1ccc(NC(=O)c2cc(F)c(F)cc2N)cc1)C(=O)NS(=O)(=O)c1ccc2ccccc2c1` [Example 106, (2S)-2-{4-[(2-amino-4,5-difluorobenzoyl)amino]benzyl}-N,N-diethyl-N′-(2-naphthylsulfonyl)malonamide], 1.6 nM; to `CCN(CC)C(=O)[C@H](Cc1ccc(NC(=O)c2ccc(F)cc2N)cc1)C(=O)NS(=O)(=O)c1ccc2ccccc2c1` [Example 107, (2S)-2-{4-[(2-amino-4-fluorobenzoyl)amino]benzyl}-N,N-diethyl-N′-(2-naphthylsulfonyl)malonamide], 1.6 nM.
Consider `CCN(CC)C(=O)[C@H](Cc1ccc(NC(=O)c2cc(C)ccc2N)cc1)C(=O)NS(=O)(=O)c1ccc2ccccc2c1` [Example 108, (2S)-2-{4-[(2-amino-5-methylbenzoyl)amino]benzyl}-N,N-diethyl-N′-(2-naphthylsulfonyl)malonamide], for which the inhibition constant Ki amounted to 9.7 nM.
To `CCN(CC)C(=O)C(CCCc1ccc(N)cc1)C(=O)NS(=O)(=O)c1ccc2ccccc2c1` (stereo not shown) [Example 147, 2-[3-(4-aminophenyl)propyl]-N,N-diethyl-N′-(2-naphthylsulfonyl)malonamide] belongs 34 nM; to `CC(C)N(C(=O)C(Cc1ccc(F)cc1)C(=O)NS(=O)(=O)/C=C/c1ccccc1)c1cccnc1` (stereo not shown) [Example 322, 2-(4-fluorobenzyl)-N-isopropyl-N-(3-pyridyl)-N′-((E)-styrylsulfonyl)malonamide], 6.4 nM; to `CCN(C(=O)C(Cc1cnn(Cc2ccccc2)c1)C(=O)NS(=O)(=O)/C=C/c1ccccc1)c1ccccc1` (stereo not shown) [Example 371, 2-[(1-benzyl-1H-pyrazol-4-yl)methyl]-N-ethyl-N-phenyl-N′-((E)-styrylsulfonyl)malonamide], 12 nM.
For `CCN(C(=O)C(CC(=O)N1CCc2ccccc2C1)C(=O)NS(=O)(=O)/C=C/c1ccccc1)c1ccccc1` (stereo not shown) [Example 441, 2-[2-(3,4-dihydroisoquinolin-2(1H)-yl)-2-oxoethyl]-N-ethyl-N-phenyl-N′-((E)-styrylsulfonyl)malonamide] the value was 11 nM; for `C=CCC(C(=O)NS(=O)(=O)/C=C/c1ccccc1)C(=O)N(CC)c1cccc(C(F)(F)F)c1` (stereo not shown) [Example 475, 2-allyl-N-ethyl-N′-((E)-styrylsulfonyl)-N-(3-trifluoromethylphenyl)malonamide], 13 nM.
In the case of `C=CCC(C(=O)NS(=O)(=O)/C=C/c1ccccc1)C(=O)N(c1ccc(F)cc1)C(C)C` (stereo not shown) [Example 481, 2-allyl-N-(4-fluorophenyl)-N-isopropyl-N′-((E)-styrylsulfonyl)malonamide], the Ki is 9 nM.
Consider `CC(C)CC(C(=O)NS(=O)(=O)/C=C/c1ccccc1)C(=O)N(c1ccc(F)cc1)C(C)C` (stereo not shown) [Example 491, N-(4-fluorophenyl)-2-isobutyl-N-isopropyl-N′-((E)-styrylsulfonyl)malonamide], for which the Ki came to 9.2 nM.
Turning to `CC(C)CC(C(=O)NS(=O)(=O)CCc1ccccc1)C(=O)N(c1ccc(F)cc1)C(C)C` (stereo not shown) [Example 493, N-(4-fluorophenyl)-2-isobutyl-N-isopropyl-N′-phenethylsulfonylmalonamide], the Ki was found to be 5.2 nM.
For `CC(C)CC(C(=O)NS(=O)(=O)c1ccc2ccccc2c1)C(=O)N(c1ccc(F)cc1)C(C)C` (stereo not shown) [Example 495, N-(4-fluorophenyl)-2-isobutyl-N-isopropyl-N′-(2-naphthylsulfonyl)malonamide] the value was 8.4 nM.
For `CC(C)CC(C(=O)NS(=O)(=O)CCCOc1ccccc1)C(=O)N(c1ccc(F)cc1)C(C)C` (stereo not shown) [Example 496, N-(4-fluorophenyl)-2-isobutyl-N-isopropyl-N′-(3-phenoxypropylsulfonyl)malonamide] the value was 12 nM.
For `CC(C)N(C(=O)C(CC1CC1)C(=O)NS(=O)(=O)CCc1ccccc1)c1ccc(F)cc1` (stereo not shown) [Example 529, 2-cyclopropylmethyl-N-(4-fluorophenyl)-N-isopropyl-N′-phenethylsulfonylmalonamide] the value was 10 nM; for `CC(C)N(C(=O)C(CC1CC1)C(=O)NS(=O)(=O)c1ccc2ccccc2c1)c1ccc(F)cc1` (stereo not shown) [Example 530, 2-cyclopropylmethyl-N-(4-fluorophenyl)-N-isopropyl-N′-(2-naphthylsulfonyl)malonamide], 13 nM.
